Experimental data as given in PubChem BioAssay (NCI).
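All cell lines were grown in 96-well plates and treated with compound for 48 hours. The concentration for 50% growth inhibition is given as GI50. TGI: concentration producing complete growth inhibition.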

How the values were obtained:
Experiment in all cases: inhibition of tumour cell growth, NCI panel, 48 h
UO-31 renal = test system: UO-31 renal
SK-OV-3 ovarian = test system: SK-OV-3 ovarian
HCT-15 colon = test system: HCT-15 colon
MDA-MB-435 = test system: MDA-MB-435
HCT-116 colon = test system: HCT-116 colon
SNB-75 CNS = test system: SNB-75 CNS
MALME-3M melanoma = test system: MALME-3M melanoma
SW-620 colon = test system: SW-620 colon
OVCAR-5 ovarian = test system: OVCAR-5 ovarian
CAKI-1 renal = test system: CAKI-1 renal

Compound | GI50 (UO-31 renal) [µM] | TGI (UO-31 renal) [µM] | GI50 (SK-OV-3 ovarian) [µM] | TGI (SK-OV-3 ovarian) [µM] | GI50 (HCT-15 colon) [µM] | TGI (HCT-15 colon) [µM] | GI50 (MDA-MB-435) [µM] | TGI (MDA-MB-435) [µM] | GI50 (HCT-116 colon) [µM] | TGI (HCT-116 colon) [µM] | GI50 (SNB-75 CNS) [µM] | TGI (SNB-75 CNS) [µM] | GI50 (MALME-3M melanoma) [µM] | TGI (MALME-3M melanoma) [µM] | GI50 (SW-620 colon) [µM] | TGI (SW-620 colon) [µM] | GI50 (OVCAR-5 ovarian) [µM] | TGI (OVCAR-5 ovarian) [µM] | GI50 (CAKI-1 renal) [µM] | TGI (CAKI-1 renal) [µM]
Nc1ccccc1C#C/C=C\C#Cc1c(F)c(F)c(F)c(F)c1F | 14.6 | 28 | 33.9 | > 100 | 15.1 | 30 | 14.9 | 31.7 | 16 | 31.1 | 41.8 | > 100 | 18.6 | 40.1 | 18.7 | 42 | 53.4 | > 100 | 10.9 | 29.1
O=C(CC(=O)c1cccc(Cl)c1)c1cccc(Cl)c1 | 3.98 | > 100 | 3.85 | > 100 | 1.86 | > 100 | 3.18 | > 100 | 1.15 | > 100 | 3.09 | > 100 | 2.75 | > 100 | 2.14 | > 100 | 4.3 | > 100 | 1.61 | 6.65
COc1cc(/C=C/c2cc(/C=C/c3ccc(O)c(OC)c3)n(C(=O)Nc3ccc(Cl)cc3)n2)ccc1O | 0.375 | 3.16 | 0.426 | 1.8 | 0.43 | 11.6 | 0.149 | 0.392 | 0.354 | 2.54 | 0.444 | 2.25 | 0.76 | 3.96 | 0.49 | 2.73 | 2.47 | 7.52 | 0.401 | 36.6
CNS(=O)(=O)OCC1OC(n2cnc3c(N)ncnc32)C(O)C1O (stereo not given) | > 100 | > 100 | > 100 | > 100 | > 100 | > 100 | > 100 | > 100 | > 100 | > 100 | > 100 | > 100 | > 100 | > 100 | > 100 | > 100 | > 100 | > 100 | > 100 | > 100
N#CN1CC[C@H](C(=O)Nc2cc3cc(C(N)=O)ccc3cn2)C1 | 0.107 | 0.518 | 0.37 | > 100 | 0.302 | > 100 | 0.045 | 13.2 | 0.104 | 15.3 | 0.0649 | 0.512 | 0.0239 | 0.152 | 0.0969 | > 84.9 | 0.51 | > 68.4 | 0.487 | > 100
Cn1c(=S)c2[nH]c(SCCN3C(=O)c4ccccc4C3=O)nc2n(C)c1=O | – | > 100 | – | > 100 | – | > 100 | – | > 100 | – | > 100 | – | > 100 | – | > 100 | – | > 100 | – | > 100 | – | > 100
Cc1ccc(-c2nc(-c3cn(C)c4ncccc34)cs2)cc1 | 8.96 | 40.5 | 6.86 | 27.5 | 3.01 | 21.3 | 0.402 | 2.88 | 3.11 | 12.3 | 4.16 | 22.4 | 4.85 | 26.5 | 1.95 | 8.91 | 7.78 | 26.5 | 2.27 | 15.2
Cc1c(C(N)=O)sc2c1c(=O)n(Cc1ccccc1)c1nnc(-c3ccc(Br)cc3)n21 | 1.4 | 11.7 | 2.97 | 16.3 | 0.705 | 17.9 | 3.49 | 20.7 | 1.75 | 13.6 | 4.44 | 20.9 | 2.94 | 13.7 | 2.98 | 18.9 | 7.17 | 21.3 | 0.431 | 6.96
O=C(Nc1ccccc1O)c1ccc(NS(=O)(=O)c2cccc3cccnc23)cc1 | 0.73 | 4.14 | 1.32 | 6.17 | 2.08 | 7.71 | 0.806 | 4.86 | 0.752 | 3.1 | 0.511 | 8.03 | 0.827 | > 25 | 0.81 | 4.88 | 0.744 | > 12.7 | 0.998 | 4.8
